Measurements taken from US20250325529A1, “INHIBITORS OF FATTY ACID BINDING PROTEINS (FABPs), METHODS OF USE AND METHODS OF MAKING” (Celloram, inc., priority 2024, published 2025).

Assays:
OVCAR5 cells = assay: Proliferation assay (Incucyte confluency), OVCAR5; type: cell-based, human; settings: 4 days
Protocol: COS-7, MDA-MB-231, and HepG2, were cultured in Dulbecco's modified Eagle's medium (DMEM) supplemented with 10% fetal bovine serum (Invitrogen Life Sciences, Carlsbad, CA). BT-549, OVCAR5 and OVCAR8 cells were cultured in L-Glutamine containing RPMI medium supplemented with 10% fetal calf serum (Invitrogen Life Sciences, Carlsbad, CA). The primary Human Mammary Epithelial Cells (HMEC) were cultured in mammary epithelial cell complete medium (basal medium plus rH-Insulin (5 μg/mL); L-Glutamine (6 mM); Epinephrine (1 μM); Apo-Transferrin (5 μg/mL); rH-TGF-α (0.5 ng/mL); ExtractP (0.4%); Hydrocortisone Hemisuccinate (100 ng/mL)).
2000 cells were plated in each well of 96-well plate. The next day cells were treated with compounds and incubated in Incucyte for 4 days. Images taken every 4 hours for the duration of the time were analyzed to calculate percentage of confluency in response to the treatments. Growth inhibition was calculated as 1—(percentage of viable cells out of untreated cells).

[1] = tested on: Salmonella typhimurium tester strain TA98; assay: Ames test (Bacterial Reverse Mutation Test), TA98; type: cell-based
Protocol: (§1) PD152 (compound 2) was tested for genotoxic and cytotoxic side effects by Ames test. The Ames test is a Bacterial Reverse Mutation Test of mutagenicity that utilizes Salmonella typhimurium tester strains TA98, TA100, TA1535, TA1537 and Escherichia coli tester strain WP2 uvrA (pKM101), both in the presence and absence of S9.
(§2) The compound PD152 was tested at 10 concentrations (0.032-1000 μg/plate) in the presence of, or absence of, the hepatic enzyme S9.
The aniline FABP4/5 inhibitor compound, 2-((2-((2,4-dichloro-5-isopropoxyphenyl)amino)-2-oxoethyl)thio)-2-methylpropanoic acid (compound “B104” as disclosed in WO2023043803A1) also was tested for genotoxic and cytotoxic side effects by Ames test. […]

[2] = tested on: Escherichia coli tester strain WP2 uvrA (pKM101); assay: Ames test (Bacterial Reverse Mutation Test), E. coli; type: cell-based
Protocol: as §1, §2

MB-231 xenograft tumors = assay: TNBC MB-231 xenograft model; type: in vivo, Nu/Nu nude mice; settings: oral 20 or 40 mg/Kg, 5 times a week
Protocol: Seven-week-old Nu/Nu athymic female mice were injected subcutaneously into the right flank with 5×10^6 MB-231 cells 1:1 with Matrigel. Once tumors reached ˜50 mm^3 in size, mice were divided into 3 groups (n=5 for each group) and treatment started. Mice were treated by gavage with either vehicle (0.5% methyl cellulose, 1% Tween 80), 20 mg/kg, or 40 mg/kg of PD152 dissolved in vehicle, 5 days a week. Thirty days after treatment started mice were scarified. Statistical significance between the different treatment groups was evaluated using a Student's t-test. The experiment was conducted after approval by the institutional animal care and use committee at Case Western Reserve University.
TNBC xenograft model was used to test the efficacy of PD152 in suppressing tumors growth in vivo. 5×10^6 MB-231 cells were subcutaneously injected into the right flank of Nu/Nu nude mice and tumor growth was monitored twice a week. Once tumors were established and reached volume of ˜50 mm^3, mice were divided into 3 groups and treatments started. Mice were treated orally by either PD152 (20 mg/Kg, or 40 mg/Kg), or a vehicle 5 times a week.

[3] = TA98, presence of S9, 0.0312 μg/plate
[4] = TA98, presence of S9, 0.1 μg/plate
[5] = TA98, presence of S9, 0.316 μg/plate
[6] = TA98, presence of S9, 1 μg/plate
[7] = TA98, presence of S9, 3.16 μg/plate
[8] = TA98, presence of S9, 10 μg/plate
[9] = TA98, presence of S9, 31.6 μg/plate
[10] = TA98, presence of S9, 100 μg/plate
[11] = TA98, presence of S9, 316 μg/plate
[12] = TA98, presence of S9, 1000 μg/plate
[13] = presence of S9, 0.0312 μg/plate

SMILES: CC(C)Oc1nc(NC(=O)CSCC(=O)O)c(Cl)cc1Cl [PD152, 2-((2-((3,5-dichloro-6-isopropoxypyridin-2-yl)amino)-2-oxoethyl)thio)acetic acid]
- Inhibition of OVCAR5 proliferation (OVCAR5 cells): inhibited proliferation of the two cell lines in a dose-dependent manner
- Fold increase [1, 3]: 1
- Mean number of revertants [1, 3]: 6
- Fold increase [1, 4]: 1
- Mean number of revertants [1, 4]: 5
- Fold increase [1, 5]: 1
- Mean number of revertants [1, 5]: 6
- Fold increase [1, 6]: 1
- Mean number of revertants [1, 6]: 6
- Fold increase [1, 7]: 1
- Mean number of revertants [1, 7]: 6
- Fold increase [1, 8]: 1
- Mean number of revertants [1, 8]: 6
- Fold increase [1, 9]: 1
- Mean number of revertants [1, 9]: 6
- Fold increase [1, 10]: 1
- Mean number of revertants [1, 10]: 6
- Fold increase [1, 11]: 1
- Mean number of revertants [1, 11]: 6
- Fold increase [1, 12]: 1
- Mean number of revertants [1, 12]: 5
- Fold increase ([2]; absence of S9, 0.0312 μg/plate): 1
- Mean number of revertants ([2]; absence of S9, 0.0312 μg/plate): 41
- Fold increase ([2]; absence of S9, 0.1 μg/plate): 1
- Mean number of revertants ([2]; absence of S9, 0.1 μg/plate): 39
- Fold increase ([2]; absence of S9, 0.316 μg/plate): 1
- Mean number of revertants ([2]; absence of S9, 0.316 μg/plate): 41
- Fold increase ([2]; absence of S9, 1 μg/plate): 1
- Mean number of revertants ([2]; absence of S9, 1 μg/plate): 39
- Fold increase ([2]; absence of S9, 3.16 μg/plate): 1
- Mean number of revertants ([2]; absence of S9, 3.16 μg/plate): 42
- Fold increase ([2]; absence of S9, 10 μg/plate): 1
- Mean number of revertants ([2]; absence of S9, 10 μg/plate): 40
- Fold increase ([2]; absence of S9, 31.6 μg/plate): 1
- Mean number of revertants ([2]; absence of S9, 31.6 μg/plate): 42
- Fold increase ([2]; absence of S9, 100 μg/plate): 1
- Mean number of revertants ([2]; absence of S9, 100 μg/plate): 42
- Fold increase ([2]; absence of S9, 316 μg/plate): 1
- Mean number of revertants ([2]; absence of S9, 316 μg/plate): 40
- Fold increase ([2]; absence of S9, 1000 μg/plate): 1
- Mean number of revertants ([2]; absence of S9, 1000 μg/plate): 42
- Fold increase [2, 13]: 1
- Mean number of revertants [2, 13]: 39
- Fold increase ([2]; presence of S9, 0.1 μg/plate): 1
- Mean number of revertants ([2]; presence of S9, 0.1 μg/plate): 42
- Fold increase ([2]; presence of S9, 0.316 μg/plate): 1
- Mean number of revertants ([2]; presence of S9, 0.316 μg/plate): 40
- Fold increase ([2]; presence of S9, 1 μg/plate): 1
- Mean number of revertants ([2]; presence of S9, 1 μg/plate): 38
- Fold increase ([2]; presence of S9, 3.16 μg/plate): 1
- Mean number of revertants ([2]; presence of S9, 3.16 μg/plate): 38
- Fold increase ([2]; presence of S9, 10 μg/plate): 1
- Mean number of revertants ([2]; presence of S9, 10 μg/plate): 41
- Fold increase ([2]; presence of S9, 31.6 μg/plate): 1
- Mean number of revertants ([2]; presence of S9, 31.6 μg/plate): 41
- Fold increase ([2]; presence of S9, 100 μg/plate): 1
- Mean number of revertants ([2]; presence of S9, 100 μg/plate): 39
- Fold increase ([2]; presence of S9, 316 μg/plate): 1
- Mean number of revertants ([2]; presence of S9, 316 μg/plate): 40
- Fold increase ([2]; presence of S9, 1000 μg/plate): 1
- Mean number of revertants ([2]; presence of S9, 1000 μg/plate): 40
- Tumor growth (volume over time) (MB-231 xenograft tumors; 30 days): growth was completely inhibited
- Tumor weight at end point (MB-231 xenograft tumors; day 30): significantly lower
